Assay results: patent US20100168228A1, “NOVEL CHEMOTHERAPEUTIC AGENTS AGAINST INFLAMMATION AND CANCER” (RELIANCE LIFE SCIENCES PVT. LTD., priority 2006, published 2010)

Assays:
Jurkat cells = assay: PARP cleavage assay using flow cytometry, Jurkat; format: cell-based, human
Description: FIG. 8: CAMVE potentiates apoptosis induced by TNF or chemotherapeutic agents. A1. Jurkat cells were incubated at 37° C. with TNF, in the presence and absence of 10 μM of CAMVE for 72 h and the viable cells were assayed using MTT reagent. The results are shown as the mean±S.D. from triplicate culture. A2. Jurkat cells (1×10^6 cells/ml) were pretreated with CAMVE for 3 h as indicated and incubated with TNF for 24 hrs, and PARP cleavage was determined by FACS analysis as described in the “Materials and Methods”. […]
FIG. 15: Induction of apoptosis and PARP cleavage by compound 27. Jurkat cells were treated with 100 and 500 nM of the compound for indicated time period and PARP cleavage was determined using FACS analysis as described in the “Materials and Methods”. […]
Extent of PARP cleavage is determined using polyclonal antibody specifically recognizing the 85 kDa fragment of cleaved PARP (NSB 699 Novus Biologicals) and can be used as a marker for detecting apoptotic cells. […] Cells were washed twice with wash buffer (PBS+1% heat inactivated FBS) and analysed using FACS.
PARP Cleavage Assay using Flow Cytometry: Extent of PARP cleavage is determined using polyclonal antibody specifically recognizing the 85 kDa fragment of cleaved PARP (NSB 699 Novus Biologicals) and can be used as a marker for detecting apoptotic cells. […]

NF-κB = NF-κB activation assay, HeLa; format: cell-based, human; details: 15 μM 3 h, 0.1 nM TNF 30 min
Description: FIG. 4: Effect of CAMVE on NF-κB activation in different cell lines. A. HeLa, MCF-7, U937, were incubated at 37° C. for 3 h with 15 μM dose of CAMVE and then stimulated with 0.1 nM TNF for 30 min. After these treatments, nuclear extracts were prepared and assayed for NF-κB using BD Transfactor ELISA method. B. RAW 264.7 cells pretreated with indicated doses of CAMVE were stimulated with 100 ng/ml LPS for 30 min and assayed for NF-κB activation.
Cell pellet was resuspended in lysis buffer (10 mM HEPES, pH 7.9, 1.5 mM MgCl2, 10 mM KCl, 1 mM PMSF, 1 mMDTT, 0.5% NP 40, 0.1 mM EGTA and 0.1 mM EDTA) and allowed to swell on ice for 15 min, followed by centrifugation at 3300×g for 20 min. The cell pellet was resuspended in a volume of lysis buffer equal to the cell pellet volume. The cell suspension was slowly drawn down into a syringe and ejected the content in a single stroke. Disrupted cells were incubated for 15 min on ice, and the disrupted cell suspension was centrifuged at 10,000×g for 20 min at 4° C. […]
The assay was performed by using wells coated with oligonucleotides having the consensus DNA binding sites for the specific transcription factors. […] Bound transcription factor was detected by a specific Primary Antibody. […] After addition of the substrate, the Absorbance was recorded at 655 nm.

Compound | TNF induced PARP cleavage (apoptosis) (Jurkat cells; pretreated 3 h, TNF 24 h) | TNF-induced NF-κB activation (NF-κB) | PARP cleavage (Jurkat cells; 100 nM and 500 nM, increasing with time)
COC(=O)c1ccc(OC(=O)/C=C/c2ccc(O)c(O)c2)c(OC)c1 [compound 1, Methyl 4-{[(2E)-3-(3,4-dihydroxyphenyl)prop-2-enoyl]oxy}-3-methoxybenzoate] | significant potentiation of PARP cleavage in a dose dependent manner | blocks TNF-induced NF-κB activation | –
COc1cc([C@@H]2Oc3c(OC)cc(/C=C/C(=O)O)cc3[C@H]2C(=O)O)ccc1O [compound 27, 5-[(E)-2-carboxyvinyl]-2β-(4-hydroxy-3-methoxyphenyl)-7-methoxy-2,3-dihydro-1-benzofuran-3α-carboxylic acid] | – | – | significant PARP cleavage was achieved at 100 nM and 500 nM
